Data on 21 molecules can be found in US9745304B2, “Amidoimidazopyridazines as MKNK-1 kinase inhibitors” (BAYER PHARMA AKTIENGESELLSCHAFT, priority 2013, dated 2017).

Assay [1] concerns the target human full-lengt MKNK1 (GST fusion, T344D) (Homo sapiens (Human), UniProt Q9BUB5, T344D). The assay can be described thus: MKNK1 kinase assay (TR-FRET, 10 μM ATP). Format: biochemical. Conditions: 15 min preincubation. As for the experimental part: MKNK1-inhibitory activity of compounds of the present invention was quantified employing the MKNK1 TR-FRET assay as described in the following paragraphs.
As substrate for the kinase reaction the biotinylated peptide biotin-Ahx-[…] (C-terminus in amide form) was used which can be purchased e.g. form the company Biosyntan (Berlin-Buch, Germany).
For the assay 50 nL of a 100 fold concentrated solution of the test compound in DMSO was pipetted into a black low volume 384 well microtiter plate (Greiner Bio-One, Frickenhausen, Germany), 2 μL of a solution of MKNK1 in aqueous assay buffer [50 mM HEPES pH 7.5, 5 mM magnesium chloride, 1.0 mM dithiothreitol, 0.005% (v/v) Nonidet-P40 (Sigma)] was added and the mixture was incubated for 15 min at 22° C. to allow pre-binding of the test compounds to the enzyme before the start of the kinase reaction. […] The concentration of MKNK1 was adjusted depending of the activity of the enzyme lot and was chosen appropriate to have the assay in the linear range, typical concentrations were in the range of 0.05 μg/ml. The reaction was stopped by the addition of 5 μL of a solution of TR-FRET detection reagents (5 nM streptavidine-XL665 [Cisbio Bioassays, Codolet, France] and 1 nM anti-ribosomal protein S6 (pSer236)-antibody from Invitrogen [#44921G] and 1 nM LANCE EU-W1024 labeled ProteinG [Perkin-Elmer, product no. AD0071]) in an aqueous EDTA-solution (100 mM EDTA, 0.1% (w/v) bovine serum albumin in 50 mM HEPES pH 7.5).
(§1) The resulting mixture was incubated for 1 h at 22° C. to allow the formation of complex between the phosphorylated biotinylated peptide and the detection reagents. Subsequently the amount of phosphorylated substrate was evaluated by measurement of the resonance energy transfer from the Eu-chelate to the streptavidine-XL. Therefore, the fluorescence emissions at 620 nm and 665 nm after excitation at 350 nm were measured in a TR-FRET reader, e.g. a Rubystar (BMG Labtechnologies, Offenburg, Germany) or a Viewlux (Perkin-Elmer). The ratio of the emissions at 665 nm and at 622 nm was taken as the measure for the amount of phosphorylated substrate.
(TR-FRET usually uses a lanthanide donor and a delayed reading to cut background.)

The target in assay [2] is human full-length MKNK1 (GST fusion, T344D) (Homo sapiens (Human), UniProt Q9BUB5, T344D). The assay can be described thus: MKNK1 kinase high ATP assay (TR-FRET, 2 mM ATP). Format: biochemical. Conditions: 15 min preincubation. As for the experimental part: MKNK1 Kinase High ATP Assay
MKNK1-inhibitory activity at high ATP of compounds of the present invention after their preincubation with MKNK1 was quantified employing the TR-FRET-based MKNK1 high ATP assay as described in the following paragraphs.
As substrate for the kinase reaction the biotinylated peptide biotin-Ahx-[…] (C-terminus in amide form) was used, which can be purchased e.g. from the company Biosyntan (Berlin-Buch, Germany).
For the assay 50 nL of a 100 fold concentrated solution of the test compound in DMSO was pipetted into a black low volume 384 well microtiter plate (Greiner Bio-One, Frickenhausen, Germany), 2 μL of a solution of MKNK1 in aqueous assay buffer [50 mM HEPES pH 7.5, 5 mM magnesium chloride, 1.0 mM dithiothreitol, 0.005% (v/v) Nonidet-P40 (Sigma)] was added and the mixture was incubated for 15 min at 22° C. to allow pre-binding of the test compounds to the enzyme before the start of the kinase reaction. Then the kinase reaction was started by the addition of 3 μL of a solution of adenosine-tri-phosphate (ATP, 3.3 mM=>final conc. in the 5 μL assay volume is 2 mM) and substrate (0.1 μM=>final conc. in the 5 μL assay volume is 0.06 μM) in assay buffer and the resulting mixture was incubated for a reaction time of 30 min at 22° C. The concentration of MKNK1 was adjusted depending of the activity of the enzyme lot and was chosen appropriate to have the assay in the linear range, typical concentrations were in the range of 0.003 μg/mL. The reaction was stopped by the addition of 5 μL of a solution of TR-FRET detection reagents (5 nM streptavidine-XL665 [Cisbio Bioassays, Codolet, France] and 1 nM anti-ribosomal protein S6 (pSer236)-antibody from Invitrogen [#44921G] and 1 nM LANCE EU-W1024 labeled ProteinG [Perkin-Elmer, product no. AD0071]) in an aqueous EDTA-solution (100 mM EDTA, 0.1% (w/v) bovine serum albumin in 50 mM HEPES pH 7.5).
as §1

human full-lengt MKNK1 (GST fusion, T344D), sequence (Q9BUB5 other isoform, or with tags, fused parts or gaps T344D): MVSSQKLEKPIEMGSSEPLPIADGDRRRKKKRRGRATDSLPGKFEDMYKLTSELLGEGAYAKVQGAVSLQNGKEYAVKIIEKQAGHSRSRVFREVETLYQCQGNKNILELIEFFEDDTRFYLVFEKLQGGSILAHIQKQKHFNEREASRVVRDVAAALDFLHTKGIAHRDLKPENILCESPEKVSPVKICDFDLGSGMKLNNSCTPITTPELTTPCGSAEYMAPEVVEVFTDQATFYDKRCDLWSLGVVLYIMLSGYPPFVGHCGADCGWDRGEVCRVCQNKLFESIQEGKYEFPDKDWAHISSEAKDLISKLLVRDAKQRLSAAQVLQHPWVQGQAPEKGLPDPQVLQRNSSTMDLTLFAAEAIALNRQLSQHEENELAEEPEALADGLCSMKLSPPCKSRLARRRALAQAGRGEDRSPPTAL
human full-length MKNK1 (GST fusion, T344D), sequence (Q9BUB5 other isoform, or with tags, fused parts or gaps T344D): as above

The IC50 is the concentration that gives 50% inhibition. As to `O=C(Cc1ccccc1)Nc1ccc2ncc(-c3cc4ccccc4o3)n2n1` [Example 1, N-[3-(1-Benzofuran-2-yl)imidazo[1,2-b]pyridazin-6-yl]-2-phenylacetamide], the IC50 in assay [1] turned out to be 8 nM; in assay [2], 18 nM.
As to `O=C(Nc1ccc2ncc(-c3cc4ccccc4o3)n2n1)C(O)c1ccccc1` (stereo not drawn) [Example 2, N-[3-(1-Benzofuran-2-yl)imidazo[1,2-b]pyridazin-6-yl]-2-hydroxy-2-phenylacetamide], the IC50 amounted to 7 nM in assay [1] and 18 nM in assay [2].
As to `O=C(Nc1ccc2ncc(-c3cc4ccccc4o3)n2n1)C(O)c1cccnc1` (stereo not drawn) [Example 3, N-[3-(1-Benzofuran-2-yl)imidazo[1,2-b]pyridazin-6-yl]-2-hydroxy-2-(pyridin-3-yl)acetamide], the concentration for half-maximal inhibition (IC50) was 3 nM in assay [1] and 11 nM in assay [2].
For `O=C(Nc1ccc2ncc(-c3cc4ccccc4o3)n2n1)C(O)C1CCCCC1` (stereo not drawn) [Example 4, N-[3-(1-Benzofuran-2-yl)imidazo[1,2-b]pyridazin-6-yl]-2-cyclohexyl-2-hydroxyacetamide] the same measures were 7 nM and 10 nM.
On the same counts, the results for `O=C(Cc1ccccn1)Nc1ccc2ncc(-c3cc4ccccc4o3)n2n1` [Example 6, N-[3-(1-Benzofuran-2-yl)imidazo[1,2-b]pyridazin-6-yl]-2-(pyridin-2-yl)acetamide] are 7 nM and 12 nM.
On the same counts, the results for `O=C(Cc1cccc(F)c1)Nc1ccc2ncc(-c3cc4ccccc4o3)n2n1` [Example 8, N-[3-(1-Benzofuran-2-yl)imidazo[1,2-b]pyridazin-6-yl]-2-(3-fluorophenyl)-acetamide] are 10 nM and 23 nM.
On to `O=C(CCc1cccnc1)Nc1ccc2ncc(-c3cc4ccccc4o3)n2n1` [Example 9, N-[3-(1-Benzofuran-2-yl)imidazo[1,2-b]pyridazin-6-yl]-3-(pyridin-3-yl)propanamide], for which the IC50 in assay [1] was determined as 3 nM; in assay [2], 7 nM.
On the same counts, the results for `O=C(Nc1ccc2ncc(-c3cc4ccccc4o3)n2n1)c1cc(=O)[nH]c(=O)[nH]1` [Example 10, N-[3-(1-Benzofuran-2-yl)imidazo[1,2-b]pyridazin-6-yl]-2,6-dioxo-1,2,3,6-tetrahydropyrimidine-4-carboxamide] are 36 nM and 36 nM.
Take `O=C1CC[C@@H](CO)N1c1ccc2ncc(-c3cc4ccccc4o3)n2n1` [Example 11, (5S)-1-[3-(1-Benzofuran-2-yl)imidazo[1,2-b]pyridazin-6-yl]-5-(hydroxymethyl)-pyrrolidin-2-one]: the IC50 in assay [1] amounted to 3 nM; in assay [2], 7 nM.
On the same counts, the results for `C[C@@H](O)C(=O)Nc1ccc2ncc(-c3cc4ccccc4o3)n2n1` [Example 13, (2R)—N-[3-(1-Benzofuran-2-yl)imidazo[1,2-b]pyridazin-6-yl]-2-hydroxypropanamide] are 4 nM and 12 nM.
For `C[C@H](O)C(=O)Nc1ccc2ncc(-c3cc4ccccc4o3)n2n1` [Example 14, (2S)—N-[3-(1-Benzofuran-2-yl)imidazo[1,2-b]pyridazin-6-yl]-2-hydroxypropanamide], the IC50 came out at 8 nM in assay [1] and 20 nM in assay [2].
On the same counts, the results for `COc1nccc2oc(-c3cnc4ccc(NC(=O)[C@@H](C)O)nn34)cc12` [Example 15, (2R)-2-hydroxy-N-[3-(4-methoxyfuro[3,2-c]pyridin-2-yl)imidazo[1,2-b]-pyridazin-6-yl]propanamide] are 3 nM and 7 nM.
Regarding `COc1nccc2oc(-c3cnc4ccc(NC(=O)[C@H](C)O)nn34)cc12` [Example 16, (2S)-2-hydroxy-N-[3-(4-methoxyfuro[3,2-c]pyridin-2-yl)imidazo[1,2-b]pyridazin-6-yl]propanamide], the figures for the IC50 in assay [1] and in assay [2] were 10 nM and 13 nM, respectively.
On the same counts, the results for `CC(C)CC(=O)Nc1ccc2ncc(-c3cc4ccccc4o3)n2n1` [Example 17, N-[3-(1-Benzofuran-2-yl)imidazo[1,2-b]pyridazin-6-yl]-3-methylbutanamide] are 4 nM and 7 nM.
`O=C(CCc1c[nH]cn1)Nc1ccc2ncc(-c3cc4ccccc4o3)n2n1` [Example 19, N-[3-(1-Benzofuran-2-yl)imidazo[1,2-b]pyridazin-6-yl]-3-(1H-imidazol-4-yl)-propanamide]: the IC50 in assay [1] was 8 nM; in assay [2], 6 nM.
On the same counts, the results for `N#Cc1cccc(CC(=O)Nc2ccc3ncc(-c4cc5ccccc5o4)n3n2)c1` [Example 21, N-[3-(1-benzofuran-2-yl)imidazo[1,2-b]pyridazin-6-yl]-2-(3-cyanophenyl)acetamide] are 14 nM and 11 nM.
For `O=C(CCC1CC1)Nc1ccc2ncc(-c3cc4ccccc4o3)n2n1` [Example 22, N-[3-(1-benzofuran-2-yl)imidazo[1,2-b]pyridazin-6-yl]-3-cyclopropylpropanamide] the same measures were 13 nM and 23 nM.
On the same counts, the results for `CCN(CC)CCC(=O)Nc1ccc2ncc(-c3cc4ccccc4o3)n2n1` [Example 23, N-[3-(1-benzofuran-2-yl)imidazo[1,2-b]pyridazin-6-yl]-N^3,N^3-diethyl-β-alaninamide] are 9 nM and 13 nM.
On to `N#CC1(C(=O)Nc2ccc3ncc(-c4cc5ccccc5o4)n3n2)CC1` [Example 24, N-[3-(1-benzofuran-2-yl)imidazo[1,2-b]pyridazin-6-yl]-1-cyanocyclopropane carboxamide], for which the IC50 is 25 nM in assay [1] and 36 nM in assay [2].
For `Cc1cccc(CCC(=O)Nc2ccc3ncc(-c4cc5ccccc5o4)n3n2)c1` [Example 31, N-[3-(1-benzofuran-2-yl)imidazo[1,2-b]pyridazin-6-yl]-3-(3-methylphenyl)propanamide] the same measures were 67 nM and 62 nM.
For `CC1CCN(CC(=O)Nc2ccc3ncc(-c4cc5ccccc5o4)n3n2)CC1` [Example 32, N-[3-(1-benzofuran-2-yl)imidazo[1,2-b]pyridazin-6-yl]-2-(4-methylpiperidin-1-yl)acetamide], the results for the IC50 in assay [1] and in assay [2] were 17 nM and 18 nM, respectively.
